{"source": "patent US9539298B2", "about": "“Lissencephaly therapeutic agent” (OSAKA CITY UNIVERSITY, priority 2010, dated 2017)", "key": {"[1]": {"test_system": "LIS1 heterozygous mouse embryos", "assay": "LIS1 protein in mouse embryo brains after SNJ-1945 intraperitoneal administration", "format": "in vivo", "procedure": "A neo(−)129S-Pafah1b1^tm2Awb/J homozygous male mouse lacking neo gene was mated with five homozygous EII-Cre transgenic female mice (FVB/N-Tg (EIIa-cre) C5379Lmgd/J, The Jackson Laboratory) by raising them in the same mouse cage. In total, six sets of mouse cages were prepared for the mating experiment. The neo(−)129S-Pafah1b1^tm2Awb/J homozygous mouse were prepared in the same manner as above. Plug check (confirmation of mating) was carried out every morning between 7 and 10 am, thereby determining the gestation cycle. SNJ-1945 was dissolved in dimethyl sulfoxide (DMSO; Sigma, D8779) at a concentration of 100 mg/ml, and intraperitoneally injected to the pregnant mice so that the administration amount became 100 μg per gram of body weight upon Day 12 of embryo period (E12) (intraperitoneal administration). To determine the effect of SNJ-1945 administration, LIS1 proteins of normal mouse embryos and those of LIS1 heterozygous mouse embryos (administered with SNJ-1945) were measured. […]\nPregnant mice were killed by cervical fracture, and the mouse embryos were immediately isolated to obtain the brain tissues. For the measurement of LIS1 protein amount, the brain weights were immediately measured as soon as the brains were removed."}, "[2]": {"test_system": "fibroblasts established from LIS1 heterozygous mice (MEF)", "assay": "Change in intracellular protein localization by SNJ-1945 (immunocytochemistry)", "format": "cell-based, mouse", "conditions": "200 μM, 2 hours", "procedure": "A LIS1 gene hetero-deficient mice group and a wild-type mice (12.5- to 14.5-day-old embryos) group each consisting of five mice were prepared, and fibroblasts (MEF; mouse embryonic fibroblast) were established from each group in the same manner as above (more specifically, fibroblasts were established by grouping the same gene type). Using the cells, immunocytochemistry was performed as follows. The influence of SNJ-1945 on intracellular protein localization in each cell was analyzed. First, a slide glass (24×24 mm; Matsunami Glass Ind., Ltd.) washed beforehand with 0.1 N hydrochloric acid was placed on a 6-well plate (Nunc), and MEF cells were seeded in an amount of 1.0×10^5 cells per well in a D-MEM culture solution (containing 10% fetal bovine blood serum; Wako Pure Chemical Ind. Ltd.). Subsequently, the 6-well plate was cultured overnight at 37° C. under 5% CO2, and SNJ-1945 was added thereto so that the final concentration became 200 μM. The incubation was performed for another 2 hours under the same conditions.\nAs a control experiment, the same experiment was performed by adding 1% dimethylsulfoxide (DMSO). After washing with phosphate buffer (PBS), the MEF cells were immobilized using 4% paraformaldehyde (Wako, 162-16065) (at room temperature, for 15 minutes). […] After incubation, the cells were washed well with PBS, and embedded using glycerol (Merck) for fluorescence microscope observation. […]\nAfter careful observation using a confocal laser microscope (TCS-SP5, Leica), the intracellular locations of the individual factors in MEF cells under varying conditions are classified into “cells clustered around the nucleus” and “cells distributed to the entire cytoplasm.” For each cell group, 10 samples, each of which consists of 10 arbitrarily extracted cells, i.e., 100 cells in total for each group, were evaluated, and the average value±standard deviation was calculated. […]"}}, "data": [{"smiles": "COCCOCCOC(=O)N[C@@H](CC(C)C)C(=O)N[C@@H](Cc1ccccc1)C(=O)C(=O)NC1CC1", "note": "[compound 17, ((1S)-1-((((1S)-1-Benzyl-2,3-dioxo-3-(cyclopropylamino)propyl)amino)carbonyl)-3-methylbutyl)carbamic acid 5-methoxy-3-oxapentyl ester]", "values": [{"measurement": "LIS1 protein amount in embryo brain", "setting": "[1]; 100 μg per gram of body weight IP to pregnant mice, E12, FIG. 6", "result": "recovered to a substantially normal level"}, {"measurement": "duration of the effect on LIS1 protein after a single dose", "setting": "[1]; 100 μg/g IP to pregnant mice, E12", "result": "continued for at least three days"}, {"measurement": "LIS1 amount around the centrosome (intracellular localization)", "setting": "[2]; FIG. 2", "result": "the LIS1 amount can be recovered"}, {"measurement": "cytoplasmatic dynein amount / localization", "setting": "[2]; FIG. 3", "result": "the cytoplasmatic dynein amount can also be recovered"}, {"measurement": "β-COP distribution", "setting": "[2]; FIG. 4", "result": "the distribution is normalized"}]}]}
